Reference: patent US11654199B2 (BOLT BIOTHERAPEUTICS, INC., priority 2019, dated 2023)

Assays:
human TLR7 = biological target: T1, human TLR7 (Homo sapiens, UniProt Q9NYK1); experiment: HEK293 NFKB reporter assay, human TLR7; type: cell-based; conditions: HEK293 NFKB reporter cells expressing human TLR7; read-out: HEK293 hTLR7 EC50
T1 construct: host or cells: HEK293 reporter cells
T1 sequence (Q9NYK1 27-1049): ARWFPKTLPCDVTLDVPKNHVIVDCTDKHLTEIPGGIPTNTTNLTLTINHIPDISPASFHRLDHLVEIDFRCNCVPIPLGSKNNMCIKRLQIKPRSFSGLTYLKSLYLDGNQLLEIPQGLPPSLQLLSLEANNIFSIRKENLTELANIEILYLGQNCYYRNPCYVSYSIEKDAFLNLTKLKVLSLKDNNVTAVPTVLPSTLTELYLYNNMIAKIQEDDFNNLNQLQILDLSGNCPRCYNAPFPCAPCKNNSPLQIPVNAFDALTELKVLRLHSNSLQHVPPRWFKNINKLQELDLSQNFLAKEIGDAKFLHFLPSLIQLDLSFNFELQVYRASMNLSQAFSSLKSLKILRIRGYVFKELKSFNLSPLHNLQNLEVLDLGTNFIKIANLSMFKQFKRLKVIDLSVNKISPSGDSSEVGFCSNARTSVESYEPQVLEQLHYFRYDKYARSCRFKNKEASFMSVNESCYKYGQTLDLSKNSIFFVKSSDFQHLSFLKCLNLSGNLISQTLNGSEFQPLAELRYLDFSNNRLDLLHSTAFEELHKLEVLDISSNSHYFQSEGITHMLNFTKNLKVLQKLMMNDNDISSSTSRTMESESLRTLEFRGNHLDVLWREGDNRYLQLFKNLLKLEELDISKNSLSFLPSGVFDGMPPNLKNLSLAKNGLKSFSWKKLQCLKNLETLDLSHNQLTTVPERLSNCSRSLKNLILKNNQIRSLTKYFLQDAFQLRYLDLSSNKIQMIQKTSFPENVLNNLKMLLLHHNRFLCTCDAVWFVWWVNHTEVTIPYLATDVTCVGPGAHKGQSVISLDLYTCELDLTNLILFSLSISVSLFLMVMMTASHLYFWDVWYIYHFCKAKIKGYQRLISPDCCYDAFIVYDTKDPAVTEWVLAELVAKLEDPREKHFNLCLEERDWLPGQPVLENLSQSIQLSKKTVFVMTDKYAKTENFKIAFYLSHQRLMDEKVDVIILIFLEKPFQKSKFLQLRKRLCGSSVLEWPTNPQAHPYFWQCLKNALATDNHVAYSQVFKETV
Protocol: Each compound was synthesized, purified, and characterized by mass spectrometry and shown to have the mass indicated. Additional experimental procedures are found in the Examples. Activity against HEK293 NFKB reporter cells expressing human TLR7 or human TLR8 was measured according to Example 202.
HEK293 reporter cells expressing human TLR7 or human TLR8 were purchased from Invivogen and vendor protocols were followed for cellular propagation and experimentation. Briefly, cells were grown to 80-85% confluence at 5% CO2 in DMEM supplemented with 10% FBS, Zeocin, and Blasticidin. Cells were then seeded in 96-well flat plates at 4×10^4 cells/well with substrate containing HEK detection medium and immunostimulatory molecules. Activity was measured using a plate reader at 620-655 nm wavelength.

human TLR8 = biological target: T2, human TLR8 (Homo sapiens, UniProt Q9NR97); experiment: HEK293 NFKB reporter assay, human TLR8; type: cell-based; conditions: HEK293 NFKB reporter cells expressing human TLR8; read-out: HEK293 hTLR8 EC50
T2 construct: host or cells: HEK293 reporter cells
T2 sequence (Q9NR97 27-1041): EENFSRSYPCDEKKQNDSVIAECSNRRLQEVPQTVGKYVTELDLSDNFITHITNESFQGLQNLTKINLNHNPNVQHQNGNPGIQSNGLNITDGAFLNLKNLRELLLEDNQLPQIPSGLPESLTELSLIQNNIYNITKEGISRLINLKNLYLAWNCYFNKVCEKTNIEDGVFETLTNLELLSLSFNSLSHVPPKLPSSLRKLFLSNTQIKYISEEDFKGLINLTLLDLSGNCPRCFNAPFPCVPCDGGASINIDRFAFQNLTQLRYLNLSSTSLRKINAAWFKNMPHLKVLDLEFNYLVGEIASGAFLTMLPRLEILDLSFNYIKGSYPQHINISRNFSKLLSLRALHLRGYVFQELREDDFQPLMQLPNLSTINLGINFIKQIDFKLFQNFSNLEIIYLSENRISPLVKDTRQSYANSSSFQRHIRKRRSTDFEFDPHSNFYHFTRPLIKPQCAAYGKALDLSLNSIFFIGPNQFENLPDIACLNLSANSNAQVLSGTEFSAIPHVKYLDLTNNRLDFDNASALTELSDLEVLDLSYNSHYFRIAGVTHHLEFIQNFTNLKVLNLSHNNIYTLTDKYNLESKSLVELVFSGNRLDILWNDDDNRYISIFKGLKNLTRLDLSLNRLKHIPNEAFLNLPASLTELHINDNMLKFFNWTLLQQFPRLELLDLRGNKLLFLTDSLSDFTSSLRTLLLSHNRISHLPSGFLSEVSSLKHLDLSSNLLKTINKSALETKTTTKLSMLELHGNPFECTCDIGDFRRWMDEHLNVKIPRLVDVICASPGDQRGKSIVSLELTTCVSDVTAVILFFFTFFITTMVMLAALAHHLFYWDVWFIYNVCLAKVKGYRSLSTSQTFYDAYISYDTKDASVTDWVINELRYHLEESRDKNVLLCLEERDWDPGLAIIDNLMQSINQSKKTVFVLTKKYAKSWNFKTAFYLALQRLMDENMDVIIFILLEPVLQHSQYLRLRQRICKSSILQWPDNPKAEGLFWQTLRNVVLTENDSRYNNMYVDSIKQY
How it was run: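 HEK293 NF-κB reporter cells expressing human TLR7 or TLR8 were seeded at 4×10^4 cells/well in HEK detection medium containing the stimulatory molecules. Reporter activity was read by absorbance at 620-655 nm.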

| Compound | EC50 (human TLR7) [µM] | EC50 (human TLR8) [µM] |
| --- | --- | --- |
| CCCN(CC12CC(CNC(=O)OC(C)(C)C)(C1)C2)C(=O)C1=Cc2sccc2N=C(N)C1 [TAZ-40] | > 9 | > 9 |
| CCCN(Cc1cnc(CNC(=O)OC(C)(C)C)cn1)C(=O)C1=Cc2sccc2N=C(N)C1 [TAZ-57] | 1.05 | 3.85 |
| CCCN(Cc1ccc(CN)c(C(F)(F)F)c1)C(=O)C1=Cc2sccc2N=C(N)C1 | 0.905 | 0.035 |
| CCCNN(CC)C(=O)C1=Cc2sccc2N=C(N)C1 [TAZ-86] | > 9 | 4.92 |
| CCCN(Cc1ccc(CNC(=O)OC(C)(C)C)cn1)C(=O)C1=Cc2sccc2N=C(N)C1 [TAZ-42] | > 9 | > 9 |
| CCCN(Cc1ccc(CN(C)C)cc1)C(=O)C1=Cc2sccc2N=C(N)C1 [TAZ-87] | 1.94 | 0.214 |
| CCCN(Cc1ccc(CN(C)C)c(C(F)(F)F)n1)C(=O)C1=Cc2sc(CCCCCN)cc2N=C(N)C1 [TAZ-145] | 5.94 | 4.01 |
| CCCN(Cc1ccc(CN(C)C)cc1)C(=O)C1=Cc2sc(CCCCCN)cc2N=C(N)C1 [TAZ-82] | 5 | 2.87 |
| [2H]C1=C(C(=O)N(CCC)Cc2ccc(CNC(=O)OC(C)(C)C)nc2)CC(N)=Nc2ccsc21 [TAZ-50] | 7.12 | 7.94 |
| CCCN(CCCNC(=O)OC1CCC1)C(=O)C1=Cc2sc(CNC(=O)Cc3ccccc3)cc2N=C(N)C1 [TAZ-204] | 2.67 | 2.55 |
| CCCN(Cc1ccc(CCN)cc1)C(=O)C1=Cc2sccc2N=C(N)C1 [TAZ-58] | > 9 | 1.3 |
| CCCN(Cc1ccc(CN2CCN(C(=O)OC(C)(C)C)CC2)cc1)C(=O)C1=Cc2sccc2N=C(N)C1 [TAZ-34] | > 9 | 0.339 |
| CCON(Cc1ccc(CN)cc1)C(=O)C1=Cc2sccc2N=C(N)C1 [TAZ-79] | > 9 | 4.13 |
| CCCN(C[C@H]1C[C@@H](CNC(=O)OC(C)(C)C)C1)C(=O)C1=Cc2sccc2N=C(N)C1 [TAZ-48] | > 9 | > 9 |
| CCCN(CCc1ccc(OC)cc1)C(=O)C1=Cc2sc(CCCCCNC(=O)OC(C)(C)C)cc2N=C(N)C1 [TAZ-106] | 4.73 | > 9 |
| CCCN(CCCNC(=O)OC(C)(C)C)C(=O)C1=Cc2sccc2N=C(N)C1 [TAZ-8, tert-butyl N-[3-[(5-amino-6H-thieno[3,2-b]azepine-7-carbonyl)-propyl-amino]propyl]carbamate] | 0.589 | 1.53 |
| CCCN(CCCNC(=O)NCC)C(=O)C1=Cc2sc(CCCCCNC(=O)OC(C)(C)C)cc2N=C(N)C1 [TAZ-170] | 0.282 | 3.37 |
| CCCN(Cc1ccc(CN(C)C)cc1C(F)(F)F)C(=O)C1=Cc2sc(CCCCCN)cc2N=C(N)C1 [TAZ-144] | 1.28 | 2.86 |

The remaining lines, values ahead:

| EC50 (human TLR7) [µM] | EC50 (human TLR8) [µM] | Compound |
| --- | --- | --- |
| 5.81 | 1.64 | CCCN(OCC)C(=O)C1=Cc2sc(C#CC3CCNCC3)cc2N=C(N)C1 [TAZ-174] |
| 5.29 | 3.13 | CCCN(CCCNC(=O)OC1CCC1)C(=O)C1=Cc2sc(CN)cc2N=C(N)C1 [TAZ-171] |
| 4.18 | 0.474 | CCCN(OCC)C(=O)C1=Cc2sc(CCC3CCN(C(=O)OC(C)(C)C)CC3)cc2N=C(N)C1 [TAZ-175] |
| 3.2 | 0.847 | CCCN(OCC)C(=O)C1=Cc2sc(CN3CC4(C3)CN(c3ccc(C)cc3)C4)cc2N=C(N)C1 [TAZ-219] |
| > 9 | > 9 | CCCN(CCC)C(=O)C1=Cc2sc(C#CCCCN)cc2N=C(N)C1 [TAZ-33] |
| 4.7 | 3.42 | CCCN(CCC)C(=O)C1=Cc2sc(CC(=O)OC)cc2N=C(N)C1 [TAZ-134] |
| > 9 | > 9 | CCCN(CCC)C(=O)C1=Cc2sc(S(=O)(=O)NCCCN)cc2N=C(N)C1 [TAZ-56] |
| 4.15 | 3.75 | CCCN(CCC)C(=O)C1=Cc2sc(CCCCN)cc2N=C(N)C1 [TAZ-38] |
| 1.27 | 2.54 | CCCN(OCC)C(=O)C1=Cc2sc(CN3CC(C(=O)OC(C)(C)C)C3)cc2N=C(N)C1 [TAZ-212] |
| > 9 | 2.87 | CCCN(CCC)C(=O)C1=Cc2sc(C#CCCN)cc2N=C(N)C1 [TAZ-35] |
| 0.802 | 3.7 | CCCN(CCCNC(=O)OC1CCC1)C(=O)C1=Cc2sc(CCC3CCNCC3)cc2N=C(N)C1 [TAZ-166] |
| 4 | 3.79 | CCCN(CCC)C(=O)C1=Cc2sc(COCCNC(=O)OC(C)(C)C)cc2N=C(N)C1 [TAZ-80] |
| 0.153 | 3.7 | CCCN(CCCNC(=O)OC1CCC1)C(=O)C1=Cc2sc(-c3cn[nH]c3)cc2N=C(N)C1 [TAZ-172] |
| 0.882 | 3.4 | CCCN(CCCNC(=O)OC1CCC1)C(=O)C1=Cc2sc(CC3CCN(C(=O)OC(C)(C)C)CC3)cc2N=C(N)C1 [TAZ-177] |
| 3.62 | 0.181 | CCCN(OCC)C(=O)C1=Cc2sccc2N=C(N)C1 [TAZ-53] |
| 0.714 | 0.124 | CCCN(OCC)C(=O)C1=Cc2sc(CC3CCNCC3)cc2N=C(N)C1 [TAZ-178] |
| 3.41 | 2.72 | CCCN(OCC)C(=O)C1=Cc2sc(CN3CCNC(=O)C3)cc2N=C(N)C1 [TAZ-224] |
| 1.73 | 1.94 | CCCN(CC1CC1)C(=O)C1=Cc2sc(CCCCCN)cc2N=C(N)C1 [TAZ-124] |
| 3.33 | 0.361 | CCCN(OCC)C(=O)C1=Cc2sc(CN3CCC(N)C3)cc2N=C(N)C1 (stereo not drawn) [TAZ-234] |
| 3.56 | 0.485 | CCCN(OCC)C(=O)C1=Cc2sc(CC3CNC3)cc2N=C(N)C1 [TAZ-183, 5-amino-2-(azetidin-3-ylmethyl)-N-ethoxy-N-propyl-6H-thieno[3,2-b]azepine-7-carboxamide] |
| 3.58 | 6.98 | CCCN(CCc1ccc(OC)cc1)C(=O)C1=Cc2sc(CCCCCN)cc2N=C(N)C1 [TAZ-107] |
| 3.44 | 1.42 | CCCN(OCC)C(=O)C1=Cc2sc(CCCCCN)cc2N=C(N)C1 [TAZ-76] |
| > 9 | > 9 | CCCN(CCC)C(=O)C1=Cc2sc(C(=O)NCCCN)cc2N=C(N)C1 [TAZ-32] |
| 0.915 | 0.249 | CCCN(OCC)C(=O)C1=Cc2sc(CCC3CCNCC3)cc2N=C(N)C1 [TAZ-176, 5-amino-N-ethoxy-2-[2-(4-piperidyl)ethyl]-N-propyl-6H-thieno[3,2-b]azepine-7-carboxamide] |
